# In patent publication US4012284A (Societa' Farmaceutici Italia, S.p.A., priority 1962, dated 1977):
# Assays:
# [1] = test system: Oberling-Guerin-Guerin myeloma; assay: Oberling-Guerin-Guerin myeloma (solid) in Long-Evans rats (Table X); conditions: 10 days; for % Inhibition (tumor growth) / Average tumor weight: 13th day; for Average tumor weight: controls 17.23; for Mortality: controls 3/12; for Body weight change, not [net]: controls +28.-; for Body weight change, gross: controls +45.2
# [2] = test system: Ehrlich ascitic carcinoma; assay: Ehrlich ascitic carcinoma, second experiment, intravenous (Table IV); type: in vivo, mouse; conditions: 1.75 mg/kg/day intravenously, 4 days
# Protocol: (§1) At least 20 animals per lot were used.
# (§2) Activity tests were carried out on mice, bearing Ehrlich ascitic carcinoma and on rats, which are grafted with hepatoma AH 130 and Oberling-Guerin-Guerin myeloma.
# (§3) Mice are grafted intraporitoneally with a suspension of tumor cells and treated with solutions of different concentrations of the antibiotic for five consecutive days starting from the day following the tumor implantation.
# The result has been confirmed by a successive experiment in which the antibiotic has been administered at the dose of 1.75 mg/kg intravenously for 4 days (Table IV).
# [3] = test system: tumors, ascitic and solid; assay: Antitumor activity on standard experimental animals (summary statements); type: in vivo, mouse and rat
# Description: as §1
# [4] = Acute toxicity, rat; conditions: in vivo
# Description: (§4) In the following Table the acute toxicity of Daunomycin as LD50 is reported.
# [5] = test system: Walker carcinosarcoma; assay: Walker carcinosarcoma in rats (Table VIII); type: in vivo, rat; conditions: for % Inhibition (tumor growth) / Average tumor weight / Mortality / Body weight change, not [net] / Body weight change, gross: 8 times within 10 days; for % Inhibition (tumor growth) / Average tumor weight: 11th day; for Average tumor weight: controls 15.940; for Mortality: controls 1/10; for Body weight change, not [net]: controls +6.96; for Body weight change, gross: controls +22.9
# Description: as §1
# (§5) The checking of the activity on solid tumors has been carried out with Ehrlich adenocarcinoma and sarcoma 180 in the mouse and with Walker carcinosarcoma and the Oberling-Guerin-Guerin myeloma in the rat.
# The rats grafted with this tumor have been treated intravenously 8 times within 10 days; at the 11th day of experiment, the surviving animals were killed and the tumors removed.
# [6] = test system: Ascitic myeloma (Oberling-Guerin-Guerin myeloma); assay: Ascitic myeloma (Oberling-Guerin-Guerin) in Wistar rats (Table V); type: in vivo, rat; conditions: for Average survival time: controls 10.7
# Protocol: as §1, §2
# This experiment was carried out on Wister rats, which have been grafted with a suspension of tumor cells and then have been treated intraperitoneously with a solution of the antibiotic according to the following scheme: one group three times on alternate days with a dose equal to 2 mg/kg/day; another group for 5 consecutive days with a dose of 1 mg/kg/day.
# [7] = test system: Hepatoma AH 130; assay: Ascitic hepatoma AH 130 in Wistar rats; type: in vivo, Wistar rat; conditions: 2 and 1 mg/kg/day intraperitoneally, 5 days, after 50 days of the experiment
# Protocol: as §1, §2
# Wistar rats, grafted with accitic hepatoma have been treated intraperitoneously for 5 consecutive days with antibiotic doses of 2 and 1 mg/kg/day.
# [8] = test system: Ehrlich ascitic carcinoma; assay: Ehrlich ascitic carcinoma in mice (Table III); type: in vivo, mouse; conditions: for Body weight increase / Average survival time: 5 days; for Average survival time: controls 16.4
# Protocol: as §1, §2, §3
# [9] = Acute toxicity, mouse; conditions: in vivo
# Description: as §4
# [10] = test system: Sarcoma 180; assay: Sarcoma 180 (solid) in mice (Table VII); type: in vivo, mouse; conditions: 2 mg/kg/day intraperitoneally, 7 days
# Protocol: as §1, §5
# Mice grafted with a fragment of neoplastic tissue have been treated intraperitoneally for seven consecutive days, starting from the day following the tumor implantation. The antibiotic was administered in solution at a dose of 2 mg/kg/day. At the tenth day of experiment, all the mice were killed and the tumors and spleens were removed.
# [11] = test system: Walker carcinosarcoma; assay: Walker carcinosarcoma in rats, second experiment (Table IX); type: in vivo, rat; conditions: 3 mg/kg/day intravenously
# Protocol: as §1, §5
# A second experiment with rats, bearing the same tumor, has been carried out to investigate the effect of the antibiotic on the animals' survival besides the antitumor activity. In this case the rats were treated intravenously 8 times within 12 days at the dose of 3 mg/kg/day.
# [12] = test system: Ehrlich adenocarcinoma; assay: Ehrlich adenocarcinoma (solid) in mice (Table VI); type: in vivo, mouse; conditions: for Body weight change, not [net]: controls +2.27; for Body weight change, gross: controls +4.85; for % Inhibition (tumor growth) / Average tumor weight: eighth day; for Average tumor weight: controls 2.583
# Description: as §1, §5
# Mice grafted with a fragment of tumor subcutaneously for 6 days starting from the day after the transplantation have been treated with a solution of the antibiotic. At the eighth day of experiment all the animals were killed and the tumor was removed and weighed.
# [13] = test system: Oberling-Guerin-Guerin myeloma; assay: Oberling-Guerin-Guerin myeloma (solid) in rats, successive experiment (Table XI); type: in vivo, rat
# Description: as §1
# The checking of the activity on solid tumors has been carried out with Ehrlich adenocarcinoma and sarcoma 180 in the mouse and with Walker carcinosarcoma and the Oberling-Guerin-Guerin myeloma in the rat. […]
# [14] = test system: several microorganisms; assay: Bacteriostatic activity / antimicrobial spectrum (summary statements); type: cell-based
# [15] = 2.5 mg/kg/day intravenously, 7 times within 14 days
structure (smiles),measurement,setting,value
COc1cccc2c1C(=O)c1c(O)c3c(c(O)c1C2=O)C[C@@](O)(C(C)=O)C[C@@H]3O[C@H]1C[C@H](N)[C@H](O)[C@H](C)O1 [F.I. 1762],% Inhibition (tumor growth),[1]; 2 mg/kg/day intravenously,34.5%
same,Average tumor weight,[1]; 2 mg/kg/day intravenously,11.30 grams
same,Mortality,[1]; 2 mg/kg/day intravenously,0/12
same,"Body weight change, not [net]",[1]; 2 mg/kg/day intravenously,+20 grams
same,"Body weight change, gross",[1]; 2 mg/kg/day intravenously,+33.3 grams
same,% Inhibition (tumor growth),[1]; 4 mg/kg/day intravenously,82.8%
same,Average tumor weight,[1]; 4 mg/kg/day intravenously,2.98 grams
same,Mortality,[1]; 4 mg/kg/day intravenously,4/12
same,"Body weight change, not [net]",[1]; 4 mg/kg/day intravenously,+0.8 grams
same,"Body weight change, gross",[1]; 4 mg/kg/day intravenously,+3.8 grams
same,Body weight increase,"[2]; 7 days after implantation, controls +6.3",+0.1 grams
same,Body weight increase,"[2]; 12 days after implantation, controls +14.2",+2.2 grams
same,Average survival time,[2]; controls 12.4,35.1 days
same,effect in solid tumors,[3]; activity differs according to administration route and dose,Good inhibiting effect
same,effect on the tumor growth in ascitic form,[3]; immediate contact of the antibiotic and the neoplastic cells,marked inhibitory effect on the tumor growth in ascitic form
same,results by route and dose,"[3]; intravenous, doses between 2 and 3 mg/kg/body weight day",best results
same,usefulness as antitumoral,[3]; standard experimental animals,particularly useful as antitumoral
same,LD50,[4]; intravenous,13 to 15 mg/kg
same,LD50,"[4]; ip, intraperitoneal",8 mg/kg
same,% Inhibition (tumor growth),[5]; 1 mg/kg/day intravenously,42.1%
same,Average tumor weight,[5]; 1 mg/kg/day intravenously,9.443 grams
same,Mortality,[5]; 1 mg/kg/day intravenously,1/10
same,"Body weight change, not [net]",[5]; 1 mg/kg/day intravenously,+0.76 grams
same,"Body weight change, gross",[5]; 1 mg/kg/day intravenously,+10.2 grams
same,tolerance,[5]; 2 mg/kg/day intravenously,tolerated
same,% Inhibition (tumor growth),[5]; 2 mg/kg/day intravenously,66.1%
same,Average tumor weight,[5]; 2 mg/kg/day intravenously,5.404 grams
same,Mortality,[5]; 2 mg/kg/day intravenously,1/10
same,"Body weight change, not [net]",[5]; 2 mg/kg/day intravenously,+22.25 grams
same,"Body weight change, gross",[5]; 2 mg/kg/day intravenously,+27.9 grams
same,effect on this type of tumor,[5]; especially with 2 mg/kg/day intravenously,marked inhibitory effect
same,Average survival time,"[6]; 1 mg/kg/day intraperitoneally, 5 consecutive days",16.7 days
same,Average survival time,"[6]; 2 mg/kg/day intraperitoneally, three times on alternate days",17.7 days
same,diffusion of the tumor,"[6]; 2 mg/kg/day x 3 or 1 mg/kg/day x 5, intraperitoneally",a delay in the diffusion of the tumor has been observed
same,trace of tumor,[7],In none of them was any trace of tumor noticed
same,survival of treated rats,[7]; controls average survival 11.8 days,all the treated rats were still alive after 50 days of the experiment
same,Body weight increase,"[8]; 0.75 mg/kg/day, 7 days after implantation, controls +9.6",+2.9 grams
same,Body weight increase,"[8]; 0.75 mg/kg/day, 14 days after implantation, controls +21.4",+5.3 grams
same,Body weight increase,"[8]; 1.25 mg/kg/day, 7 days after implantation, controls +9.6",+1.5 grams
same,Body weight increase,"[8]; 1.25 mg/kg/day, 14 days after implantation, controls +21.4",+3.1 grams
same,Body weight increase,"[8]; 1.25 mg/kg/day, 21 days after implantation",+4.4 grams
same,Average survival time,[8]; 1.25 mg/kg/day,32.0 days
same,Body weight increase,"[8]; 1.75 mg/kg/day, 7 days after implantation, controls +9.6",+1.3 grams
same,Body weight increase,"[8]; 1.75 mg/kg/day, 14 days after implantation, controls +21.4",+2.4 grams
same,Body weight increase,"[8]; 1.75 mg/kg/day, 21 days after implantation",+4.7 grams
same,Average survival time,[8]; 1.75 mg/kg/day,36.4 days
same,average survival rate of the treated animals,[8]; 1.75 and 1.25 mg/kg/day,increased considerably
same,effect on the ascitic tumor growth,[8]; 1.75 and 1.25 mg/kg/day,remarkable inhibitory effect on the ascitic tumor growth
same,LD50,[9]; intravenous,20 mg/kg
same,LD50,"[9]; ip, intraperitoneal",5 mg/kg
same,spleen,[10],marked shrinkage of the spleen
same,tumor growth,[10],marked inhibition of tumor growth
same,Mortality,[10]; controls 0/10,0/10
same,"Body weight change, not [net]",[10]; controls +2.83,-3.01 grams
same,"Body weight change, gross",[10]; controls +5.05,-1.72 grams
same,"% Inhibition, spleen",[10]; tenth day,62.7%
same,"% Inhibition, tumor",[10]; tenth day,42.1%
same,"Average weight, tumor","[10]; tenth day, controls 2.225",1.289 grams
same,"Average weight, spleen","[10]; tenth day, controls 251",93.5 milligrams
same,increase of average survival,[11]; 8 times within 12 days,50.8%
same,Tumor growth inhibition,"[11]; 8 times within 12 days, 9th day",71.0 % of the control
same,Tumor growth inhibition,"[11]; 8 times within 12 days, 29th day",31.6 % of the control
same,Average survival time,"[11]; 8 times within 12 days, controls 16.9",25.5 days
same,tumor growth inhibition (in words),[11]; 20 days after the injections were stopped,still continues in a remarkable degree
same,tumor growth inhibition (in words),[11]; during the treatment,considerable during the treatment
same,"Body weight change, not [net]",[12]; 3 mg/kg/day,+1.59 grams
same,"Body weight change, gross",[12]; 3 mg/kg/day,+3.84 grams
same,% Inhibition (tumor growth),[12]; 3 mg/kg/day,12%
same,Average tumor weight,[12]; 3 mg/kg/day,2.253 grams
same,"Body weight change, not [net]",[12]; 6 mg/kg/day,+1.07 grams
same,"Body weight change, gross",[12]; 6 mg/kg/day,+2.59 grams
same,% Inhibition (tumor growth),[12]; 6 mg/kg/day,41.1%
same,Average tumor weight,[12]; 6 mg/kg/day,1.522 grams
same,"% Inhibition, spleen",[13]; [15],54.1%
same,"% Inhibition, tumor",[13]; [15],69.5%
same,"Average weight, spleen","[13]; 2.5 mg/kg/day intravenously, 7 times within 14 days, controls 1.303",0.598 grams
same,Mortality,"[13]; 2.5 mg/kg/day intravenously, 7 times within 14 days, controls 5/15",5/15
same,"Average weight, tumor","[13]; 2.5 mg/kg/day intravenously, 7 times within 14 days, controls 13.486",4.114 grams
same,"Body weight change, not [net]","[13]; 2.5 mg/kg/day intravenously, 7 times within 14 days, controls +40.22",+16.79 grams
same,"Body weight change, gross","[13]; 2.5 mg/kg/day intravenously, 7 times within 14 days, controls +53.7",+20.9 grams
same,tolerance of the antibiotic,"[13]; Tables X and XI, 2 mg and 2.5 mg/kg/day intravenously",good tolerance
same,activity against this kind of tumor,"[13]; Tables X and XI, 2 mg and 2.5 mg/kg/day intravenously produced the best results",active also against this kind of tumor
same,antimicrobial spectrum,[14],"embraces grampositive, gram-negative bacteria, fungi and protozoa"
same,bacteriostatic activity against several microorganisms,[14],remarkable bacteriostatic activity against several microorganisms
